From ChEMBL document CHEMBL5247590, “Novel nitrogen mustard-artemisinin hybrids with potent anti-leukemia action through DNA damage and activation of GPx” (Eur J Med Chem, 2022)
pIC50: −log10 of the molar value.

Columns and labels:
[1] = Antitumor activity against human L02 cells assessed as cell growth inhibition; type: toxicity, cell-based
[2] = Antitumor activity against PBMC cells (unknown origin) assessed as cell growth inhibition; type: functional, cell-based; settings: Homo sapiens
[3] = test system: HL-60; assay: Antitumor activity against human HL-60 cells assessed as cell growth inhibition; type: functional, cell-based
[4] = test system: CCRF-CEM; assay: Antiproliferative activity against human CCRF-CEM cells assessed as cell growth inhibition incubated for 72 hrs by MTT assay; type: functional, cell-based
[5] = Selectivity index, ratio of IC50 for human L02 cells to IC50 for human CCRF-CEM cells; type: toxicity; settings: L02 cells and CCRF-CEM cells, read-out: Selectivity Index
[6] = Selectivity index, ratio of IC50 for human K562 cells to IC50 for human CCRF-CEM cells
[7] = test system: A549; assay: Antiproliferative activity against human A549 cells assessed as cell growth inhibition incubated for 72 hrs by MTT assay; type: functional, cell-based; settings: A549, 72 h
[8] = test system: K562; assay: Antiproliferative activity against human K562 cells assessed as cell growth inhibition incubated for 72 hrs by MTT assay; type: functional, cell-based; settings: K562, 72 h
[9] = test system: HCT-116; assay: Antiproliferative activity against human HCT-116 cells assessed as cell growth inhibition incubated for 72 hrs by MTT assay; type: functional, cell-based; settings: HCT-116, 72 h
[10] = test system: U-118-MG; assay: Antiproliferative activity against human U-118-MG cells assessed as cell growth inhibition incubated for 72 hrs by MTT assay; type: functional, cell-based
[11] = test system: HL-60; assay: Antiproliferative activity against human HL-60 cells assessed as cell growth inhibition incubated for 72 hrs by MTT assay; type: functional, cell-based; settings: HL-60, 72 h
[12] = Antiproliferative activity against human L02 cells assessed as cell growth inhibition incubated for 72 hrs by MTT assay; type: toxicity, cell-based
[13] = test system: SH-SY5Y; assay: Antiproliferative activity against human SH-SY5Y cells assessed as cell growth inhibition incubated for 72 hrs by MTT assay; type: functional, cell-based
[14] = Selectivity index, ratio of IC50 for human HL-60 cells to IC50 for human CCRF-CEM cells
[15] = test system: Bel-7402; assay: Antitumor activity against human Bel-7402 cells assessed as cell growth inhibition; type: functional, cell-based

C=C1C(=O)[C@@]23C(=O)O[C@H]4CCC(C)(C)[C@H]5[C@H](O)OC[C@@]45[C@@H]2CC[C@@H]1[C@H]3OC(=O)c1ccc(N(CCCl)CCCl)cc1
pIC50 [1]: < 4.00

COC(=O)[C@H](Cc1ccc(N(CCCl)CCCl)cc1)NC(=O)CCC(=O)OCCCOCCCn1c2c(c3ccccc31)CCN1C(=O)c3ccccc3N(C)[C@H]21
pIC50 [2]: < 3.70 | pIC50 [3]: 6.30

C[C@@H]1CC[C@@H]2[C@]34OO[C@](C)(CC[C@@H]13)O[C@H]4O[C@]2(C)COC(=O)c1ccccc1N(CCCl)CCCl
pIC50 [4]: 5.83 | selectivity ratio [5]: 5.19 | Selectivity Index [6]: 0.8 | pIC50 [7]: 5.24 | pIC50 [8]: 5.02 | pIC50 [9]: 4.93 | pIC50 [10]: < 4.40 | pIC50 [11]: 6.10 | IC50 at 72 h [12]: 7.68 µM | pIC50 [13]: 4.66 | Selectivity Index [14]: 9.73

C[C@@H]1CC[C@H]2[C@@H](C)C(OC(=O)c3ccc(N(CCCl)CCCl)c(F)c3)O[C@@H]3O[C@@]4(C)CC[C@@H]1[C@]32OO4 (stereo not given in full)
pIC50 [4]: 4.61 | pIC50 [7]: 5.07 | pIC50 [9]: 5.38 | pIC50 [10]: < 4.40 | IC50 at 72 h [12]: > 40 µM | pIC50 [13]: < 4.40

C[C@@H]1CC[C@@H]2[C@]34OO[C@](C)(CC[C@@H]13)O[C@H]4O[C@]2(C)COC(=O)Cc1ccc(N(CCCl)CCCl)cc1
pIC50 [4]: 5.42 | pIC50 [7]: < 4.40 | pIC50 [8]: < 4.00 | pIC50 [9]: 4.40 | pIC50 [10]: < 4.40 | pIC50 [11]: 4.68 | IC50 at 72 h [12]: > 40 µM | pIC50 [13]: < 4.40

O=C(O)CCCc1ccc(N(CCCl)CCCl)cc1 [CHLORAMBUCIL]
pIC50 [4]: 4.92 | selectivity ratio [5]: 8.79 | Selectivity Index [6]: 1.05 | pIC50 [7]: < 4.40 | pIC50 [8]: < 4.00 | pIC50 [9]: < 4.40 | pIC50 [10]: < 4.40 | pIC50 [11]: 4.46 | pIC50 [13]: < 4.40 | Selectivity Index [14]: 24.1

C[C@@H]1CC[C@@H]2[C@]34OO[C@](C)(CC[C@@H]13)O[C@H]4O[C@]2(C)COC(=O)CCCc1ccc(N(CCCl)CCCl)cc1
pIC50 [4]: 4.60 | pIC50 [7]: < 4.40 | pIC50 [9]: < 4.40 | pIC50 [10]: < 4.40 | IC50 at 72 h [12]: > 40 µM | pIC50 [13]: < 4.40

C[C@@H]1CC[C@H]2[C@@H](C)C(OC(=O)CCCc3ccc(N(CCCl)CCCl)cc3)O[C@@H]3O[C@@]4(C)CC[C@@H]1[C@]32OO4 (stereo not given in full)
pIC50 [4]: 5.86 | pIC50 [7]: 4.83 | pIC50 [9]: 4.91 | pIC50 [10]: < 4.40 | IC50 at 72 h [12]: > 40 µM | pIC50 [13]: < 4.40

O=C(OCCCOc1ccc(-c2cc(=O)c3c(O)c(O)c(O)cc3o2)cc1)c1ccc(N(CCCl)CCCl)cc1
pIC50 [1]: < 4.30

C[C@@H]1CC[C@H]2[C@@H](C)C(OC(=O)c3ccccc3N(CCCl)CCCl)O[C@@H]3O[C@@]4(C)CC[C@@H]1[C@]32OO4 (stereo not given in full)
pIC50 [4]: 5.47 | pIC50 [7]: 5.09 | pIC50 [9]: 4.59 | pIC50 [10]: < 4.40 | IC50 at 72 h [12]: 8.24 µM | pIC50 [13]: < 4.40

Cc1cc(C(=O)OC[C@@]2(C)O[C@@H]3O[C@@]4(C)CC[C@H]5[C@H](C)CC[C@@H]2[C@@]35OO4)ccc1N(CCCl)CCCl
pIC50 [4]: 6.26 | selectivity ratio [5]: 3.37 | Selectivity Index [6]: 3.18 | pIC50 [7]: 5.15 | pIC50 [8]: 6.23 | pIC50 [9]: 5.37 | pIC50 [10]: < 4.40 | pIC50 [11]: 5.53 | IC50 at 72 h [12]: 1.87 µM | pIC50 [13]: < 4.40 | Selectivity Index [14]: 0.63

C[C@@H]1CC[C@@H]2[C@]34OO[C@](C)(CC[C@@H]13)O[C@H]4O[C@]2(C)COC(=O)c1ccc(N(CCCl)CCCl)c(F)c1
pIC50 [4]: < 4.40 | pIC50 [7]: < 4.40 | pIC50 [9]: < 4.40 | pIC50 [10]: < 4.40 | IC50 at 72 h [12]: > 40 µM | pIC50 [13]: < 4.40

C[C@@H]1CC[C@@H]2[C@]34OO[C@](C)(CC[C@@H]13)O[C@H]4O[C@]2(C)COC(=O)c1cccc(N(CCCl)CCCl)c1
pIC50 [4]: < 4.40 | pIC50 [7]: < 4.40 | pIC50 [9]: 5.07 | pIC50 [10]: 4.66 | IC50 at 72 h [12]: 32 µM | pIC50 [13]: < 4.40

Cc1cc(C(=O)OC2O[C@@H]3O[C@@]4(C)CC[C@H]5[C@H](C)CC[C@@H]([C@H]2C)[C@@]35OO4)ccc1N(CCCl)CCCl (stereo not given in full)
pIC50 [4]: 5.73 | pIC50 [7]: 5.15 | pIC50 [9]: 5.17 | pIC50 [10]: < 4.40 | IC50 at 72 h [12]: 5 µM | pIC50 [13]: < 4.40

C[C@H]1[C@@H](O)O[C@@H]2O[C@@]3(C)CC[C@H]4[C@H](C)CC[C@@H]1[C@@]24OO3 [ARTENIMOL]
pIC50 [4]: 5.29 | pIC50 [7]: < 4.40 | pIC50 [8]: 4.66 | pIC50 [9]: < 4.40 | pIC50 [11]: 4.21 | IC50 at 72 h [12]: 24.3 µM | pIC50 [13]: < 4.40

COc1cccc2c1C(=O)c1c(O)c3c(c(O)c1C2=O)C[C@@](O)(C(=O)CO)C[C@@H]3O[C@H]1C[C@H](N)[C@H](O)[C@H](C)O1 [DOXORUBICIN]
pIC50 [9]: 5.73 | pIC50 [13]: 5.81

C[C@@H]1CC[C@H]2[C@@H](C)C(OC(=O)Cc3ccc(N(CCCl)CCCl)cc3)O[C@@H]3O[C@@]4(C)CC[C@@H]1[C@]32OO4 (stereo not given in full)
pIC50 [4]: 5.80 | pIC50 [7]: 4.90 | pIC50 [8]: 4.81 | pIC50 [9]: 5.23 | pIC50 [10]: < 4.40 | pIC50 [11]: 4.95 | IC50 at 72 h [12]: 15.9 µM | pIC50 [13]: < 4.40

C[C@@H]1CC[C@@H]2[C@]34OO[C@](C)(CC[C@@H]13)O[C@H]4O[C@]2(C)COC(=O)CCc1ccc(N(CCCl)CCCl)cc1
pIC50 [4]: 5.05 | pIC50 [7]: < 4.40 | pIC50 [9]: 4.68 | pIC50 [10]: < 4.40 | IC50 at 72 h [12]: > 40 µM | pIC50 [13]: < 4.40

C[C@@H]1CC[C@H]2[C@@H](C)C(OC(=O)c3cccc(N(CCCl)CCCl)c3)O[C@@H]3O[C@@]4(C)CC[C@@H]1[C@]32OO4 (stereo not given in full)
pIC50 [4]: < 4.40 | pIC50 [7]: 5.49 | pIC50 [10]: < 4.40 | IC50 at 72 h [12]: > 40 µM | pIC50 [13]: < 4.40

C[C@@H]1CC[C@H]2[C@@H](C)C(OC(=O)CCc3ccc(N(CCCl)CCCl)cc3)O[C@@H]3O[C@@]4(C)CC[C@@H]1[C@]32OO4 (stereo not given in full)
pIC50 [4]: 5.38 | pIC50 [7]: < 4.40 | pIC50 [8]: 4.30 | pIC50 [9]: 5.09 | pIC50 [10]: < 4.40 | pIC50 [11]: 4.52 | IC50 at 72 h [12]: > 40 µM | pIC50 [13]: < 4.40

C[C@@H]1CC[C@@H]2[C@]34OO[C@](C)(CC[C@@H]13)O[C@H]4O[C@]2(C)COC(=O)c1ccc(N(CCCl)CCCl)cc1
pIC50 [4]: 5.35 | pIC50 [7]: 5.28 | pIC50 [9]: 5.10 | pIC50 [10]: < 4.40 | IC50 at 72 h [12]: > 40 µM | pIC50 [13]: < 4.40

C=C1C(=O)[C@]23[C@H](OC(=O)c4ccc(N(CCCl)CCCl)cc4)[C@H]1CC[C@H]2[C@@]12CO[C@@]3(O)[C@@H](O)[C@@H]1C(C)(C)CC[C@@H]2O
pIC50 [1]: 5.39 | pIC50 [15]: 6.30
